The values below come from patent publication US9884130B2, “Compositions for delivery of oral comfort sensations” (The Procter & Gamble Company, priority 2013, dated 2018).

Where a name gives a salt, the structure may show the parent alone. Read-outs that look alike come from different tables or passages of the source.

Test [1] addresses T1, mouse TREK-1 (mTREK-1t) (Mus musculus, UniProt P97438).
T1 construct: (mTREK-1t) by Capital Biosciences (Rockville, Md.)
T1 sequence (P97438 with tags, fused parts or gaps limits assumed): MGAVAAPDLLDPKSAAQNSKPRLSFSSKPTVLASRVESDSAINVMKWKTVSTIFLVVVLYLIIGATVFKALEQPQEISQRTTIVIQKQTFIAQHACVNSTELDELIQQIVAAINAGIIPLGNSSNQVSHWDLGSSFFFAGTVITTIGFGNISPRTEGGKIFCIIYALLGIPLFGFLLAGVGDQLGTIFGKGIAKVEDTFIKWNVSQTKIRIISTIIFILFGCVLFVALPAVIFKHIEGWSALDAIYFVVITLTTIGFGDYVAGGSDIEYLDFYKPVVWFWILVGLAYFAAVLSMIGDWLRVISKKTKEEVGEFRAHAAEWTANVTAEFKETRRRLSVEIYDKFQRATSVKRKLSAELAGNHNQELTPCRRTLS
As to the kind of experiment: FLIPR membrane potential assay in HEK-293 cells stably transfected with mTREK-1t. Format: cell-based.

The conditions of test [2]: concentration level where the cooling effect can be clearly recognized; cited from earlier work.
The mark [3] stands for this setting: HEK293, Sample Conc. 0.0005%, read-out: Activity Level (percentage of activity relative to 100% with 50 mM potassium nitrate).
Where [4] appears, read: HEK293, Sample Conc. 0.0010%, read-out: Activity Level (percentage of activity relative to 100% with 50 mM potassium nitrate).
[5] abbreviates: HEK293, Sample Conc. 0.0021%, read-out: Activity Level (percentage of activity relative to 100% with 50 mM potassium nitrate).
Where [6] appears, read: HEK293, Sample Conc. 0.0042%, read-out: Activity Level (percentage of activity relative to 100% with 50 mM potassium nitrate).
Where [7] appears, read: HEK293, Sample Conc. 0.0083%, read-out: Activity Level (percentage of activity relative to 100% with 50 mM potassium nitrate).
Where [8] appears, read: HEK293, Sample Conc. 0.0167%, read-out: Activity Level (percentage of activity relative to 100% with 50 mM potassium nitrate).
The mark [9] stands for this setting: HEK293, Sample Conc. 0.0330%, read-out: Activity Level (percentage of activity relative to 100% with 50 mM potassium nitrate).
The mark [10] stands for this setting: HEK293, read-out: Fluorescence per Sample concentration (percent activity relative to potassium nitrate).
Setting [11] is: sample concentration 50 μM, relative to 50 mM potassium nitrate.
[12] abbreviates: sample concentration 100 μM, relative to 50 mM potassium nitrate.
[13] abbreviates: sample concentration 200 μM, relative to 50 mM potassium nitrate.
[14] abbreviates: HEK293, sample concentration 50 μM, relative to 50 mM potassium nitrate, read-out: Fluorescence per Sample concentration (percent activity relative to potassium nitrate).
[15] abbreviates: HEK293, sample concentration 100 μM, relative to 50 mM potassium nitrate, read-out: Fluorescence per Sample concentration (percent activity relative to potassium nitrate).
Setting [16] is: HEK293, sample concentration 200 μM, relative to 50 mM potassium nitrate, read-out: Fluorescence per Sample concentration (percent activity relative to potassium nitrate).
[17] abbreviates: HEK293, read-out: Activity Level (percentage of activity relative to 100% with 50 mM potassium nitrate).

`COC(=O)c1ccccc1O` [Methyl Salicylate]: the “percentage of TREK-1 activity relative to potassium nitrate” value in test [1] (Sample Concentration 0.0005%) stood at 2.35%; in test [1] (Sample Concentration 0.0010%) it was 2.33%; in test [1] (Sample Concentration 0.0021%), 2.66%; in test [1] (Sample Concentration 0.0042%) it was 4.94%; in test [1] (Sample Concentration 0.0083%) it was 8.31%; in test [1] (Sample Concentration 0.0167%), 17.4%. Besides, the “percentage of TREK-1 activity relative to potassium nitrate” value in test [1] (Sample Concentration […]) was found to be 29.43%.

In the case of `CCCOC(=O)CCCCC(=O)OCCC` [Dipropyl Adipate], the activation at 0.0005 % in test [1] (setting [3]) was 0%. Moreover, in test [1] (setting [4]), the activation at 0.001 % stood at 0%. In addition, the activation at 0.0021 % in test [1] (setting [5]) came out at 0%. Further, the activation at 0.0042 % in test [1] (setting [6]) turned out to be 0%. For the same compound, the activation at 0.0083 % in test [1] (setting [7]) amounted to 0.51%. Further, the activation at 0.0167 % in test [1] (setting [8]) was determined as 2.66%. The activation at 0.033 % in test [1] (setting [9]) is 12.2%.

Take `CCCCC(CC)COP(=O)(O)OCC(CC)CCCC` (centres unmarked) [Bis (2-ethyl hexyl) Phosphate]: the “activity on TREK-1 compared with potassium nitrate” value in test [1] (0.033% Sample concentration vs 50 mM (0.505%) potassium nitrate) is on record as “higher activity on TREK-1 than potassium nitrate”. The “Activity Level (percentage of activity relative to 100% with 50 mM potassium nitrate)” value in test [1] (Sample Conc. 0.0005%) turned out to be 5.92%; in test [1] (Sample Conc. 0.0010%) it was 13.39%; in test [1] (Sample Conc. 0.0021%), 20.49%; in test [1] (Sample Conc. 0.0042%) it was 26.65%; in test [1] (Sample Conc. 0.0083%), 43.09%; in test [1] (Sample Conc. 0.0167%), 84.83%. For the same compound, the “Activity Level (percentage of activity relative to 100% with 50 mM potassium nitrate)” value in test [1] (Sample Conc. 0.0330%) came out at 109.75%.

In the case of `CC=Cc1ccc(OC)c(OC)c1` [1,2-Dimethoxy 4-propenyl benzene], in test [1] (setting [10]), the activation at 50 µM came out at 5.19%, the activation at 100 µM is 10.5% and the activation at 200 µM turned out to be 29.1%.

As for `O=[N+]([O-])[O-].[K+]` [Potassium Nitrate, reference compound], in test [1], the “Activity Level (percentage of activity relative to 100% with 50 mM potassium nitrate)” value is 100%, the “Fluorescence per Sample concentration (percent activity relative to potassium nitrate)” value came out at 100% and the “percentage of TREK-1 activity relative to potassium nitrate” value was found to be 100%.

Turning to `CC(C)[C@@H]1CC[C@@H](C)C[C@H]1O` [L- Menthol], in test [2], the cooling threshold result is given as “about 800 ppb”.

As for L-Carvone, the “percentage of TREK-1 activity relative to potassium nitrate” value in test [1] (Sample Concentration 0.0005%) is given as 1.85%; in test [1] (Sample Concentration 0.0010%), 0.97%; in test [1] (Sample Concentration 0.0021%), 2.7%; in test [1] (Sample Concentration 0.0042%) it was 2.03%; in test [1] (Sample Concentration 0.0083%), 9.51%; in test [1] (Sample Concentration 0.0167%), 24.1%. Further, the “percentage of TREK-1 activity relative to potassium nitrate” value in test [1] (Sample Concentration […]) is reported as 98.65%.

As to `CCCCCCCCCCC1CCC(=O)O1` (centres unmarked) [gamma-Tetradecalactone], the “Fluorescence per Sample concentration (percent activity relative to potassium nitrate)” value came to 3.21% in test [1] (setting [11]); 3.54% in test [1] (setting [12]); 9.82% in test [1] (setting [13]); 15.89% in test [1] (sample concentration 400 μM, relative to 50 mM potassium nitrate).

Turning to `Cc1ccc(C(C)C)c(O)c1` [Thymol], the “percentage of TREK-1 activity relative to potassium nitrate” value is given as 4.57% in test [1] (Sample Concentration 0.0005%); 4.82% in test [1] (Sample Concentration 0.0010%); 3.86% in test [1] (Sample Concentration 0.0021%); 4.09% in test [1] (Sample Concentration 0.0042%); 6.73% in test [1] (Sample Concentration 0.0083%); 31.4% in test [1] (Sample Concentration 0.0167%). Moreover, in test [1] (Sample Concentration […]), the “percentage of TREK-1 activity relative to potassium nitrate” value came out at 65.22%.

Regarding `CCCCCC(C)CCC(=O)O` (centres unmarked) [4-Methylnonanoic acid], the activation at 50 µM in test [1] (setting [14]) was 24.8%. The activation at 100 µM in test [1] (setting [15]) came to 38.5%. For the same compound, the activation at 200 µM in test [1] (setting [16]) was determined as 79.9%.

Regarding `CC(C)CC=C(C=O)C(C)C` [2-Isopropyl-5-methyl-2-hexenal], the activation at 50 µM in test [1] (setting [14]) was found to be 11.1%. Moreover, the activation at 100 µM in test [1] (setting [15]) was 21.1%. Besides, the activation at 200 µM in test [1] (setting [16]) came out at 46.3%. In test [1] (HEK293, sample concentration 400 μM, relative to 50 mM potassium nitrate, read-out: Fluorescence per Sample concentration (percent activity relative to potassium nitrate)), the activation at 400 µM was no less than 50%.

As to `CC(C)[C@@H]1CC[C@@H](C)C[C@@H]1O` [Sample 1-neomenthol, 1-neomenthol], the cooling threshold result in test [2] is “about 3,000 ppb”.

As to `CCOC(=O)CC(O)(CC(=O)OCC)C(=O)OCC` [Triethyl Citrate], the activation at 0.0005 % in test [1] (setting [3]) is 4.06%. Moreover, the activation at 0.001 % in test [1] (setting [4]) turned out to be 1.7%. The activation at 0.0021 % in test [1] (setting [5]) was 2.98%. For the same compound, in test [1] (setting [6]), the activation at 0.0042 % came to 3.67%. In addition, the activation at 0.0083 % in test [1] (setting [7]) was found to be 6.17%. The activation at 0.0167 % in test [1] (setting [8]) came to 13.4%. For the same compound, in test [1] (setting [9]), the activation at 0.033 % was 17.2%.

`CCCCCCCCC1CCC(=O)O1` (centres unmarked) [gamma-Dodecalactone]: the “Fluorescence per Sample concentration (percent activity relative to potassium nitrate)” value in test [1] (setting [11]) came out at 1.77%; in test [1] (setting [12]), 3.41%; in test [1] (setting [13]), 18.74%.

Regarding `CCCCC(CC)CCC(=O)O` (centres unmarked) [4-Ethyloctanoic Acid], the activation at 50 µM in test [1] (setting [14]) is 31%. Further, the activation at 100 µM in test [1] (setting [15]) worked out at 44.6%. In addition, in test [1] (setting [16]), the activation at 200 µM was determined as 77.3%.

Take `Oc1ccccc1-c1ccccc1` [2-Phenylphenol]: in test [1] (setting [10]), the activation at 50 µM is 0.35%, the activation at 100 µM turned out to be 0.85%, the activation at 200 µM is 12.9% and the activation at 400 µM is no less than 50%.

`CC(C)OC(=O)CCCCC(=O)OC(C)C` [Diisopropyl Adipate]: the activation at 0.0005 % in test [1] (setting [3]) stood at 1.31%. In addition, the activation at 0.001 % in test [1] (setting [4]) came to 1.38%. The activation at 0.0021 % in test [1] (setting [5]) came to 3.43%. In test [1] (setting [6]), the activation at 0.0042 % was found to be 3.56%. In addition, in test [1] (setting [7]), the activation at 0.0083 % is 6.59%. Moreover, the activation at 0.0167 % in test [1] (setting [8]) turned out to be 14.8%. In test [1] (setting [9]), the activation at 0.033 % amounted to 30.4%.

For `CC(C)C=C(C=O)c1ccccc1` [4-Methyl-2-phenyl-2 Pentenal], in test [1] (setting [14]), the activation at 50 µM is 16.5%. The activation at 100 µM in test [1] (setting [15]) stood at 27.1%. The activation at 200 µM in test [1] (setting [16]) was 52.1%.

Take `CCCCOC(=O)CC(CC(=O)OCCCC)(OC(C)=O)C(=O)OCCCC` [Acetyl Tributyl Citrate]: in test [1] (setting [3]), the activation at 0.0005 % worked out at 2.69%. For the same compound, the activation at 0.001 % in test [1] (setting [4]) worked out at 0.48%. Besides, the activation at 0.0021 % in test [1] (setting [5]) is 3.06%. Besides, the activation at 0.0042 % in test [1] (setting [6]) came out at 2.5%. Besides, the activation at 0.0083 % in test [1] (setting [7]) amounted to 5.89%. The activation at 0.0167 % in test [1] (setting [8]) was determined as 14.1%. Moreover, in test [1] (setting [9]), the activation at 0.033 % is 24%.

In the case of `CC(C)[C@@H]1CC[C@@H](C)C[C@@H]1O` [d-neomenthol], the cooling threshold entry in test [2] is “about 25,000 ppb”.

For `CCCCCCCCOC(=O)CCCCC(=O)OCCCCCCCC` [Dioctyl Adipate], the “activity on TREK-1 compared with potassium nitrate” value in test [1] is on record as “higher activity on TREK-1 than potassium nitrate”. In test [1] (setting [17]), the activation at 0.0005 % was found to be 8.93%, the activation at 0.001 % stood at 13.7%, the activation at 0.0021 % was determined as 18.1% and the activation at 0.0042 % is 22.9%. Moreover, in test [1] (setting [17]), the activation at 0.0083 % was found to be 38.9%, the activation at 0.0167 % was greater than 70% and the activation at 0.033 % was determined as 132%.
